In the supplement of paper PMC10307832:

Tests used:
Assay in all cases: relative viability (nuclei count vs DMSO), 5 days (fraction); higher = more cells survive
[1] = compound: CC(C)C[C@@H](C(=O)N[C@H](C(=O)OC1CCCC1)c1ccccc1)[C@H](O)C(=O)NO [Tosedostat] + Cc1nc(Nc2ncc(C(=O)Nc3c(C)cccc3Cl)s2)cc(N2CCN(CCO)CC2)n1 [Dasatinib] (partner 0.075 µM)
In short: (§1)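 Values are medians from duplicate plates. Each reflects relative viability, defined as the nuclei count of treated wells over that of vehicle wells. Lung cancer cell lines in 1536-well plates were pin-tool dosed one day after seeding with one drug alone or with a fixed anchor-drug dose plus five library-drug doses (not always all listed) in √10 steps, then fixed, stained and imaged at 4× after 5 days.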

[2] = compound: CC(C)C[C@@H](C(=O)N[C@H](C(=O)OC1CCCC1)c1ccccc1)[C@H](O)C(=O)NO [Tosedostat] + CS(=O)(=O)CCNCc1ccc(-c2ccc3ncnc(Nc4ccc(OCc5cccc(F)c5)c(Cl)c4)c3c2)o1 [Lapatinib] (partner 2 µM)
In short: as §1

[3] = compound: CC1=NN=C(O1)C2=NN=C(C=C2)N3CCC(CC3)OC4=C(C=CC(=C4)F)Cl + O=C(c1cc(Cc2n[nH]c(=O)c3ccccc23)ccc1F)N1CCN(C(=O)C2CC2)CC1 [Olaparib] (partner 8 µM)
In short: as §1

[4] = compound: CC1=NN=C(O1)C2=NN=C(C=C2)N3CCC(CC3)OC4=C(C=CC(=C4)F)Cl + C[C@@H](Oc1cc(-c2cnn(C3CCNCC3)c2)cnc1N)c1c(Cl)ccc(F)c1Cl [Crizotinib] (partner 1 µM)
In short: as §1

Row | Cell Line | relative viability ([1]; first compound 0.02 µM) | relative viability ([1]; first compound 0.06325 µM) | relative viability ([1]; first compound 0.2 µM) | relative viability ([1]; first compound 0.6325 µM) | relative viability ([1]; first compound 2 µM) | relative viability ([2]; first compound 0.02 µM) | relative viability ([2]; first compound 0.06325 µM) | relative viability ([2]; first compound 0.2 µM) | relative viability ([2]; first compound 0.6325 µM) | relative viability ([2]; first compound 2 µM) | relative viability ([3]; first compound 0.253 µM) | relative viability ([3]; first compound 0.8 µM) | relative viability ([3]; first compound 2.53 µM) | relative viability ([3]; first compound 8 µM) | relative viability ([4]; first compound 0.253 µM) | relative viability ([4]; first compound 0.8 µM) | relative viability ([4]; first compound 2.53 µM) | relative viability ([4]; first compound 8 µM)
1 | NCI-H2347 | 0.269 | 0.353 | 0.291 | 0.311 | 0.26 | 1.12 | 1.02 | 1.03 | 0.892 | 0.888 | 0.49 | 0.49 | 0.552 | 0.44 | 0.734 | 0.522 | 0.646 | 0.607
2 | NCI-H2405 | 0.221 | 0.266 | 0.218 | 0.211 | 0.164 | 1.43 | 1.06 | 0.999 | 1.02 | 0.847 | 0.586 | 0.469 | 0.514 | 0.499 | 0.503 | 0.428 | 0.465 | 0.428
3 | NCI-H3122 | 0.745 | 0.912 | 0.925 | 0.915 | 0.711 | 1.09 | 0.99 | 1.07 | 1.07 | 1.04 | 0.283 | 0.273 | 0.336 | 0.293 | 0.3 | 0.303 | 0.318 | 0.359
4 | PC-3 [JPC-3] | 0.999 | 1.06 | 0.929 | 0.621 | 0.7 | 0.445 | 0.453 | 0.432 | 0.452 | 0.428 | 1 | 0.899 | 0.997 | 1.04 | 0.754 | 0.791 | 0.818 | 0.75
5 | PC-14 | 0.245 | 0.237 | 0.263 | 0.192 | 0.208 | 0.273 | 0.32 | 0.348 | 0.269 | 0.371 | 0.257 | 0.226 | 0.317 | 0.266 | 0.747 | 0.636 | 0.713 | 0.739
6 | RERF-LC-KJ | 0.873 | 0.77 | 0.771 | 0.623 | 0.511 | 0.824 | 0.908 | 0.855 | 0.821 | 0.879 | 0.377 | 0.536 | 0.553 | 0.529 | 0.496 | 0.498 | 0.495 | 0.458
7 | SK-LU-1 | 0.184 | 0.191 | 0.219 | 0.197 | 0.203 | 0.915 | 0.774 | 0.7 | 0.709 | 0.739 | 0.356 | 0.341 | 0.348 | 0.41 | 0.895 | 0.732 | 0.826 | 0.589
8 | SK-MES-1 | 0.285 | 0.237 | 0.329 | 0.213 | 0.229 | 0.41 | 0.482 | 0.473 | 0.472 | 0.472 | 0.497 | 0.507 | 0.538 | 0.507 | 0.773 | 0.807 | 0.81 | 0.724
9 | SW 1573 | 0.572 | 0.36 | 0.368 | 0.317 | 0.314 | 1.18 | 1.12 | 1.19 | 1.05 | 1.05 | 0.524 | 0.519 | 0.426 | 0.412 | 0.777 | 0.827 | 0.795 | 0.664
10 | UMC-11 | 0.499 | 0.454 | 0.453 | 0.448 | 0.504 | 1.05 | 1.01 | 0.957 | 1.19 | 0.96 | 0.244 | 0.379 | 0.396 | 0.233 | 0.468 | 0.474 | 0.476 | 0.487
